Reference: US20230348394A1, “COMPOSITIONS AND METHODS FOR TREATING MUSCULAR DYSTROPHIES” (The Regents of the University of California, priority 2020, published 2023)
Structures can show the parent of a compound that is named as a salt.

These molecules were tested on SSPN gene expression (assay: SSPN gene expression in tibialis anterior after intramuscular injection in mdx mice). Details: 3 mg/kg and 10 mg/kg intramuscular, 4 hours.
Type: in vivo
Method: (§1) For the preliminary safety assessment of OT-9, we performed IP injections in 6 month old C57/B16 males. The mice were injected with 100 μl of vehicle (5% DMSO (Sigma), 95% PBS), 100 μl of 30 mg/kg of OT-9 in vehicle, or 100 μl of 50 mg/kg of OT-9 in vehicle (n=1 mouse per treatment). […] For assessment of activity, 20-weeks old male mdx littermates were injected in both tibialis anterior muscles with vehicle (5% DMSO, 95% PBS) or 86 μg of OT-9. Two mice were injected in both TAs with vehicle and three mice were injected in both TAs with 200 of OT-9 (9.4 mM solution containing 86 μg of OT-9). After 4 hours, the muscles were harvested and processed for gene expression analysis. For assessment of activity of OT-9m after local administration, 19-22-weeks old mdx males were injected in both tibialis anterior muscles with vehicle (5% DMSO, 95% PBS) or 3 mg/kg and 10 mg/kg of OT-9m. After 4 hours, the muscles were harvested and processed for gene expression analysis. For assessment of activity of OT-9m after systemic administration, 13-weeks old mdx males were injected subcutaneously with vehicle (4% PEG-200 in hydroxypropyl-b-cyclodextrin) or 20 mg/kg/day of OT-9m. After 13 days of treatment, the muscles were harvested and processed for gene expression analysis.
After the preliminary safety evaluation, we tested the ability of OT-9 to increase SSPN gene expression in vivo. […] Five 20-weeks old male mdx littermates were subjected to intramuscular injections in both tibialis anterior (TA) muscles. Two mice were injected in both TAs with vehicle and […] were injected with 3 mg/kg of OT-9 (molar equivalent of 9.4 mM used in the safety assessment). After 4 hours of treatment, the TAs were harvested and processed for gene expression analysis. […] After determination that OT-9 is capable of increasing SSPN gene expression in vivo, we evaluated one of its derivatives, OT-9m, for its ability to increase SSPN expression in mdx mice. OT-9m was chosen based on its improved activity in vitro compared to OT-9 (compare, Table 1, entries 1 & 14). To assess activity OT-9m in vivo after local administration, eleven 19-22 weeks old male mdx mice were subjected to intramuscular injections in both tibialis anterior (TA) muscles. Four mice were injected in both TAs with vehicle, three mice were injected with 3 mg/kg of OT-9m and four mice were injected with 10 mg/kg of OT-9m. After 4 hours of treatment, the TAs were harvested and processed for gene expression analysis.
In the case of `COc1ccc2[nH]c(=O)c(C(=O)Nc3ccc(C(=O)N4CCCOCC4)cc3)cc2c1` [OT-9m, N-(4-(1,4-oxazepane-4-carbonyl)phenyl)-6-methoxy-2-oxo-1,2-dihydroquinoline-3-carboxamide], the “SSPN gene expression in tibialis anterior” value was “increased SSPN gene expression”.

Same assay, conditions: OT-9m 3 mg/kg and 10 mg/kg intramuscular, both TA, 4 hours
With `COc1ccc2[nH]c(=O)c(C(=O)Nc3ccc(C(=O)N4CCCOCC4)cc3)cc2c1` [OT-9m, N-(4-(1,4-oxazepane-4-carbonyl)phenyl)-6-methoxy-2-oxo-1,2-dihydroquinoline-3-carboxamide] the “adverse effects after local injection” value was “No adverse effects”.

The molecules below were run on SSPN-HiBiT protein (sarcospan) (assay: C2C12 SSPN-HiBiT protein reporter assay (12-well and 384-well format)). Details: SSPN-HiBiT C2C12 myotubes, 5 μM.
Type: cell-based, murine
Method: C2C12 SSPN-HiBiT myoblasts were seeded at 25,000 cells per well in 2 ml of growth media in 12 well-plates and incubated for 3 days. Upon reaching confluency, the growth media was replaced with 2 ml of differentiation media. At day 2 of differentiation, the media on the cells was replaced with 2 ml of differentiation media containing compounds at a final concentration of 5.5 μM in 0.06% DMSO. For vehicle control-treated cells, 0.06% DMSO was added to the cells. After 48 hrs the cells were washed with PBS and frozen for 2-24 hrs. The plates containing cells were thawed on ice and 100 μl of ice-cold modified RIPA buffer containing 1% Triton X-100, 0.05% DOC, 0.05% SDS, and Halt Protease Inhibitor was added to each well. Cells were scratched, transferred into 1.5 ml tubes, and centrifuged for 20 min at 16,000×g at 4° C. The cell lysates were transferred into new tubes. DC assay was performed on cell lysates to determine protein concentration. White walled, white bottom 384-well microplates (Greiner) were prefilled with 15 μl of PBS and 15 μl of cell lysates were added to each well in triplicate. Then 30 μl Nano-Glo HiBiT Lytic Detection working solution was added to each well and incubated for 30 min at RT with shaking. The luminescence was measured on the EnVision plate reader and the signal was normalized to protein concentration and signal from vehicle-treated controls.
C2C12 SSPN-HiBiT myoblasts were seeded at 500 cells per well in 50 μl of growth media in 384-well white, clear bottom microplates (Greiner) and incubated for 3 days. Upon reaching confluency, the growth media was replaced with 50 μl of differentiation media consisting of phenol-red free DMEM with 2% horse serum (Sigma-Aldrich) using an EL406 combination washer dispenser (Biotek). At day 2 of differentiation, the media on the cells was aspirated, left with a residual volume of 10 μl, and replaced with 30 μl of fresh differentiation media. 0.5 μl of small molecule in DMSO or DMSO alone (for vehicle and positive control wells) were added to each well using a Biomek Fx (Beckman). To ensure proper mixing of the DMSO, 50 μl of additional differentiation media was added to all wells except the positive control treated wells. The final concentration of compound in each treated well was 0.5-10 μM in 0.55% DMSO and 0.55% DMSO only for vehicle. After 48 hrs of incubation, the plate was washed with phenol red-free DMEM, aspirated, and left with a residual volume of 5 μl using EL406 combination washer dispenser. After the wash, 25 μl of differentiation media containing 12 μM DRAQ5 nuclear stain was added to reach a final concentration 10 μM in each well and incubated for 15 min at 37° C. with 5% CO2. The cells were imaged using ImageXpress Micro Confocal High Content Imaging System (Molecular Devices). The nuclei count of imaged cells were determined using a custom module analysis in MetaXpress Analysis software (Molecular Devices). After imaging and analysis, the plate was aspirated, left with a residual volume of 5 μl and placed at −80° C. for 2-24 hrs. The plate was thawed at RT and 25 μl of PBS was added, followed by 30 μl of Nano-Glo HiBiT Lytic Detection working solution prepared according manufacturer recommendations. Luminescence was measured using the EnVision plate reader and the signal of each well was normalized to nuclei count and signal from vehicle-treated controls.
In order to effectively test new analogues, we created method for detecting SSPN protein in cells, e.g., SSPN-HiBiT. SSPN-HiBiT based on a murine C2C12 cell line expressing endogenous SSPN protein with an N-term fusion protein called the HiBiT, an 11 amino acid subunit of a luciferase enzyme (FIG. 10a). The SSPN-HiBiT protein is quantified through addition of substrate and a larger subunit of the luciferase enzyme to catalyze the formation of luminescent signal. […]
With `O=C1Nc2ccc(I)cc2/C1=C/c1cc(Br)c(O)c(Br)c1` [GW5074, reference compound] the “increase in SSPN-HiBiT levels” value was 1.35 fold.

Same assay, conditions: Table 1; *p<0.05
In the case of `CCN(CC)c1ccc2cc(C(=O)Nc3ccc(C(=O)N4CCCCCC4)cc3)cnc2c1`, the “SSPN-HiBiT, fold change over vehicle” value was 1.62* fold change over vehicle. With `CCN(CC)c1ccc2cc(C(=O)Nc3ccc(C(=O)N4CCCOCC4)cc3)cnc2c1` the “SSPN-HiBiT, fold change over vehicle” value was 1.3* fold change over vehicle. In the case of `CCN(CC)c1ccc2cc(C(=O)Nc3nnc(C(=O)N4CCOCC4)[nH]3)cnc2c1`, the “SSPN-HiBiT, fold change over vehicle” value was 1.34* fold change over vehicle. For `CCN(CC)c1ccc2cc(C(=O)Nc3ccc(C(=O)N4CCN(C)CC4)cc3)cnc2c1`, the “SSPN-HiBiT, fold change over vehicle” value was 1.47* fold change over vehicle. With `CCN(CC)C(=O)c1ccc(NC(=O)c2cnc3cc(N(CC)CC)ccc3c2)cc1` the “SSPN-HiBiT, fold change over vehicle” value was 1.75* fold change over vehicle. With `COc1ccc2nc(C)c(C(=O)Nc3ccc(C(=O)N4CCCOCC4)cc3)cc2c1` the “SSPN-HiBiT, fold change over vehicle” value was 1.22* fold change over vehicle. For `COc1ccc2[nH]c(=O)c(C(=O)Nc3ccc(C(=O)N4CCCCCC4)cc3)cc2c1`, the “SSPN-HiBiT, fold change over vehicle” value was 1.03 fold change over vehicle. In the case of `CCN(CC)C(=O)c1ccc(NC(=O)c2cc3cc(OC)ccc3[nH]c2=O)cc1`, the “SSPN-HiBiT, fold change over vehicle” value was 1.51* fold change over vehicle. With `COc1ccc2c(c1)CC(C(=O)Nc1ccc(C(=O)N3CCN(C)CC3)cc1)C(=O)N2` (stereo not drawn) the “SSPN-HiBiT, fold change over vehicle” value was 1.46* fold change over vehicle. For `Nc1ccc2ncc(C(=O)Nc3ccc(C(=O)N4CCCOCC4)cc3)cc2c1` [N-(4-(1,4-oxazepane-4-carbonyl)phenyl)-6-aminoquinoline-3-carboxamide hydrochloride], the “SSPN-HiBiT, fold change over vehicle” value was 1.09* fold change over vehicle. With `COc1ccc2nc(C)c(C(=O)Nc3ccc(C(=O)N4CCCCCC4)cc3)cc2c1` [N-(4-(azepane-1-carbonyl)phenyl)-6-methoxy-2-methylquinoline-3-carboxamide] the “SSPN-HiBiT, fold change over vehicle” value was 1.4* fold change over vehicle. `CCN(CC)C(=O)c1ccc(NC(=O)c2cc3ccccc3nc2C)cc1` [N-(4-(diethylcarbamoyl)phenyl)-2-methylquinoline-3-carboxamide] was tested, and the “SSPN-HiBiT, fold change over vehicle” value was 1.08* fold change over vehicle. With `CCN(CC)C(=O)c1ccc(NC(=O)c2c(C)c3ccccc3[nH]c2=O)cc1` [N-(4-(diethylcarbamoyl)phenyl)-4-methyl-2-oxo-1,2-dihydroquinoline-3-carboxamide] the “SSPN-HiBiT, fold change over vehicle” value was 1.21* fold change over vehicle. For `CCN(CC)C(=O)c1ccc(NC(=O)c2cc3ccc(F)cc3[nH]c2=O)cc1` [N-(4-(diethylcarbamoyl)phenyl)-7-fluoro-2-oxo-1,2-dihydroquinoline-3-carboxamide], the “SSPN-HiBiT, fold change over vehicle” value was 1.45* fold change over vehicle. In the case of `COc1ccc2[nH]c(=O)c(C(=O)Nc3ccc(C(=O)N4CCCOCC4)cc3)cc2c1` [OT-9m, N-(4-(1,4-oxazepane-4-carbonyl)phenyl)-6-methoxy-2-oxo-1,2-dihydroquinoline-3-carboxamide], the “SSPN-HiBiT, fold change over vehicle” value was 2.4* fold change over vehicle.

Same assay, conditions: Table 2; *p<0.05
`Cc1cc2cc(C#N)c(OCC(=O)c3ccc(F)cc3F)nc2cc1C` was tested, and the “SSPN-HiBiT, fold change over vehicle” value was 1.22* fold change over vehicle. In the case of `Cc1cc2cc(C#N)c(S(=O)(=O)CC(=O)c3ccc(F)cc3)nc2cc1C`, the “SSPN-HiBiT, fold change over vehicle” value was 1.23* fold change over vehicle. With `COc1ccc(C(=O)COc2nc3cc(C)c(C)cc3cc2C#N)cc1` the “SSPN-HiBiT, fold change over vehicle” value was 1.27* fold change over vehicle. With `Cc1cc2cc(C#N)c(OCC(=O)c3ccc(O)cc3)nc2cc1C` the “SSPN-HiBiT, fold change over vehicle” value was 1.21 fold change over vehicle. With `Cc1cc(C)c(C#N)c(OCC(=O)c2ccc(N(C)C)cc2)n1` [2-(2-(4-(dimethylamino)phenyl)-2-oxoethoxy)-4,6-dimethylnicotinonitrile] the “SSPN-HiBiT, fold change over vehicle” value was 1.09* fold change over vehicle. For `Cc1cc2cc(C#N)c(OCC(=O)c3ccc(N(C)C)cc3)nc2cc1C` [2-(2-(4-(dimethylamino)phenyl)-2-oxoethoxy)-6,7-dimethylquinoline-3-carbonitrile], the “SSPN-HiBiT, fold change over vehicle” value was 1.04* fold change over vehicle. `Cc1cc(C)c2nc(OCC(=O)c3ccc(N(C)C)cc3)c(C#N)cc2c1` [2-(2-(4-(dimethylamino)phenyl)-2-oxoethoxy)-6,8-dimethylquinoline-3-carbonitrile] was tested, and the “SSPN-HiBiT, fold change over vehicle” value was 1.3* fold change over vehicle. In the case of `Cc1cc2cc(C#N)c(SCC(=O)c3ccc(F)cc3)nc2cc1C` [2-((2-(4-fluorophenyl)-2-oxoethyl)thio)-6,7-dimethylquinoline-3-carbonitrile], the “SSPN-HiBiT, fold change over vehicle” value was 1.48* fold change over vehicle.

What follows are molecules tested on SSPN transcript (assay: SSPN gene expression after systemic (subcutaneous) treatment of mdx mice). Details: 20 mg/kg daily subcutaneous, 13 days, quadriceps.
Type: in vivo
Method: as §1, with “For assessment of activity of OT-9m after systemic administration, 13-weeks old mdx males were injected subcutaneously with vehicle (4% PEG-200 in hydroxypropyl-b-cyclodextrin) or 20 mg/kg/day of OT-9m. After 13 days of treatment, the muscles were harvested and processed for gene expression analysis.” left out
Followed by local administration, we evaluated ability of OT-9m to enhance SSPN expression in mdx mice after systemic treatment. […] We determined that mice overexpressing sarcospan by 1.5-fold were not rescued, while mice overexpressing sarcospan by 3-fold were rescued.
For `COc1ccc2[nH]c(=O)c(C(=O)Nc3ccc(C(=O)N4CCCOCC4)cc3)cc2c1` [OT-9m, N-(4-(1,4-oxazepane-4-carbonyl)phenyl)-6-methoxy-2-oxo-1,2-dihydroquinoline-3-carboxamide], the “increase of SSPN transcript” value was 2 fold.
